This passage reports Activity and IC50 results from ChEMBL document CHEMBL5325446, “Design and synthesis of proteolysis-targeting chimeras (PROTACs) as degraders of glutathione peroxidase 4” (Bioorg Med Chem, 2023).

What is called IC50 is the concentration that gives 50% inhibition.

Test [1] deals with Protein cereblon/Phospholipid hydroperoxide glutathione peroxidase GPX4 (Homo sapiens) (UniProt Q96SW2+P36969). The test is described as follows: PROTAC activity at CRBN/GPX4 in human MGC-803 cells assessed as induction of GPX4 degradation at 10 uM incubated for 24 hrs by Western blot analysis. Format: cell-based. (In western blotting, separated proteins are transferred to a membrane and probed.)
Chain of Protein cereblon/Phospholipid hydroperoxide glutathione peroxidase GPX4 (Homo sapiens) (P36969 whole entry, looked up): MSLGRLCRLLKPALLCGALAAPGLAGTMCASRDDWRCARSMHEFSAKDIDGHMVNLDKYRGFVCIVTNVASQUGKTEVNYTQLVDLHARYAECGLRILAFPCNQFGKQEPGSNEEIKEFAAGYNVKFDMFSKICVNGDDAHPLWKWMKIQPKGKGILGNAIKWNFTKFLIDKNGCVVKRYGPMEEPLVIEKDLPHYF
Chain of Protein cereblon/Phospholipid hydroperoxide glutathione peroxidase GPX4 (Homo sapiens) (Q96SW2 whole entry, looked up): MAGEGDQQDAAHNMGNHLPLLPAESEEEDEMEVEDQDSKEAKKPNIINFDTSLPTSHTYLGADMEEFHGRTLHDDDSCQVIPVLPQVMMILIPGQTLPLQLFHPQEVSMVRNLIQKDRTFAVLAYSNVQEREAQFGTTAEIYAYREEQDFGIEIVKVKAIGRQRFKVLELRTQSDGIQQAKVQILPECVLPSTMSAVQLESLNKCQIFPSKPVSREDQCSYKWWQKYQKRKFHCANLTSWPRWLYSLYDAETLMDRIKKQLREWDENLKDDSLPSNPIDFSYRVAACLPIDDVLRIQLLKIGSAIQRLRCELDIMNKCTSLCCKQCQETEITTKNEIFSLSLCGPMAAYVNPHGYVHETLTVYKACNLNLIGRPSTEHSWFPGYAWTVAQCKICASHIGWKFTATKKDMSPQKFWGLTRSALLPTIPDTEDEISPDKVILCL

Test [2] deals with von Hippel-Lindau disease tumor suppressor/Phospholipid hydroperoxide glutathione peroxidase GPX4 (Homo sapiens) (UniProt P40337+P36969). The test is described as follows: PROTAC activity at VHL/GPX4 in human MGC-803 cells assessed as induction of GPX4 degradation at 10 uM incubated for 24 hrs by Western blot analysis. In kind it is cell-based.
Chain of von Hippel-Lindau disease tumor suppressor/Phospholipid hydroperoxide glutathione peroxidase GPX4 (Homo sapiens) (P36969 whole entry, looked up): as the sequence (P36969 whole entry, looked up) above
Chain of von Hippel-Lindau disease tumor suppressor/Phospholipid hydroperoxide glutathione peroxidase GPX4 (Homo sapiens) (P40337 whole entry, looked up): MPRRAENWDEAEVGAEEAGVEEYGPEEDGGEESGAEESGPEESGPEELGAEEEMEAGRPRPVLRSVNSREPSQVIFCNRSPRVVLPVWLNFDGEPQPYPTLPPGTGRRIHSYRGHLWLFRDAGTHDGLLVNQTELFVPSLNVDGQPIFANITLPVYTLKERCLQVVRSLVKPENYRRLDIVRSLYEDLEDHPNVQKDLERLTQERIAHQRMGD
Test [3] concerns HT-1080. The test is described as follows: Induction of ferroptosis in human HT-1080 cells assessed as […] accumulation at 10 uM incubated for 12 hrs by C11-BODIPY staining based flow cytometry analysis. Format: functional, cell-based. A general note: In flow cytometry, cells or beads pass a laser one at a time.
Test [4] has as its system HT-1080. The test is described as follows: Induction of ferroptosis in human HT-1080 cells assessed as […] accumulation at 10 uM incubated for 24 hrs by C11-BODIPY staining based flow cytometry analysis. Format: functional, cell-based.
Test [5] deals with HT-1080. The test is described as follows: Cytotoxicity against human HT-1080 cells assessed as cell growth inhibition incubated for 48 hrs by CCK-8 assay. In kind it is functional, cell-based. The settings on record: HT-1080, 48 h.

Active and inactive are the calls of the source. The rule behind the calls is not given here. A value given as a limit tells only on which side of the number the result lay.

Turning to `O=C1CCC(N2C(=O)c3cccc(OCC(=O)N4CCN(CC(=O)Nc5ccc(N(C(=O)CCl)C(C(=O)NCCc6ccccc6)c6cccs6)cc5)CC4)c3C2=O)C(=O)N1` (centres undefined), in test [1], the Activity was < 10%.

Regarding `O=C(CCOCCNc1cccc2c1C(=O)N(C1CCC(=O)NC1=O)C2=O)NCCCCCCC(=O)Nc1ccc(N(C(=O)CCl)C(C(=O)NCCc2ccccc2)c2cccs2)cc1` (centres undefined), in test [1], the Activity was < 10%.

As for `Cc1ncsc1-c1ccc([C@H](C)NC(=O)[C@@H]2C[C@@H](O)CN2C(=O)[C@@H](NC(=O)CCCCCCCCCC(=O)Nc2ccc(N(C(=O)CCl)C(C(=O)NCCc3ccccc3)c3cccs3)cc2)C(C)(C)C)cc1` (some centres undefined), the Activity in test [2] is < 10%.

As to `Cc1ncsc1-c1ccc([C@@H](C)NC(=O)[C@@H]2C[C@@H](O)CN2C(=O)[C@@H](NC(=O)CCCCCC(=O)Nc2ccc(N(C(=O)CCl)C(C(=O)NCCc3ccccc3)c3cccs3)cc2)C(C)(C)C)cc1` (some centres undefined), the Activity in test [2] is < 10%.

In the case of `O=C1CCC(N2C(=O)c3cccc(NCCOCCOCCOCCOCCC(=O)N4CCN(CC(=O)Nc5ccc(N(C(=O)CCl)C(C(=O)NCCc6ccccc6)c6cccs6)cc5)CC4)c3C2=O)C(=O)N1` (centres undefined), in test [1], the Activity came out at 19.9%.

In the case of `Cc1ncsc1-c1ccc([C@H](C)NC(=O)[C@@H]2C[C@@H](O)CN2C(=O)[C@@H](NC(=O)CCCCC(=O)Nc2ccc(N(C(=O)CCl)C(C(=O)NCCc3ccccc3)c3cccs3)cc2)C(C)(C)C)cc1` (some centres undefined), the Activity in test [2] is < 10%.

On to `Cc1ncsc1-c1ccc([C@H](C)NC(=O)[C@@H]2C[C@@H](O)CN2C(=O)[C@@H](NC(=O)CCCCCCC(=O)Nc2ccc(N(C(=O)CCl)C(C(=O)NCCc3ccccc3)c3cccs3)cc2)C(C)(C)C)cc1` (some centres undefined), for which the outcome with HT-1080 [3] was inactive. In test [2], the Activity stood at 45%. Moreover, the outcome with HT-1080 [4] was Active.

In the case of `COc1ccc(N(C(=O)CCl)C(C(=O)NCCc2ccccc2)c2ccc(NC(=O)CCOCCNc3cccc4c3C(=O)N(C3CCC(=O)NC3=O)C4=O)cc2)cc1Cl` (centres undefined), the Activity in test [2] stood at 28.7%.

With `O=C1CCC(N2C(=O)c3cccc(NCCOCCOCCOCCOCCC(=O)Nc4ccc(N(C(=O)CCl)C(C(=O)NCCc5ccccc5)c5cccs5)cc4)c3C2=O)C(=O)N1` (centres undefined), the Activity in test [1] stood at 14.5%.

For the molecule `O=C1CCC(N2C(=O)c3cccc(OCC(=O)Nc4ccc(N(C(=O)CCl)C(C(=O)NCCc5ccccc5)c5cccs5)cc4)c3C2=O)C(=O)N1` (centres undefined), the result in the test with HT-1080 [3] and in the test with HT-1080 [4] was Active. The Activity in test [1] is < 10%. In the test with HT-1080 [5], the IC50 was determined as 11.9 µM.

On to `O=C1CCC(N2C(=O)c3cccc(NCCOCCOCCOCCC(=O)N4CCN(CC(=O)Nc5ccc(N(C(=O)CCl)C(C(=O)NCCc6ccccc6)c6cccs6)cc5)CC4)c3C2=O)C(=O)N1` (centres undefined), for which the Activity in test [1] is < 10%.

For `O=C1CCC(N2C(=O)c3cccc(NCCOCCOCCC(=O)N4CCN(CC(=O)Nc5ccc(N(C(=O)CCl)C(C(=O)NCCc6ccccc6)c6cccs6)cc5)CC4)c3C2=O)C(=O)N1` (centres undefined), the Activity in test [1] was determined as 18.2%.

On to `O=C(Cn1cc(COc2cccc3c2C(=O)N(C2CCC(=O)NC2=O)C3=O)nn1)NCCCCC(=O)Nc1ccc(N(C(=O)CCl)C(C(=O)NCCc2ccccc2)c2cccs2)cc1` (centres undefined), for which, in test [2], the Activity is < 10%.

Consider `O=C(CCOCCNc1cccc2c1CN(C1CCC(=O)NC1=O)C2=O)NCCC(=O)Nc1ccc(N(C(=O)CCl)C(C(=O)NCCc2ccccc2)c2cccs2)cc1` (centres undefined), for which, in test [1], the Activity was < 10%.

Take `O=C(CCOCCNc1cccc2c1C(=O)N(C1CCC(=O)NC1=O)C2=O)NCCOCCOCCC(=O)Nc1ccc(N(C(=O)CCl)C(C(=O)NCCc2ccccc2)c2cccs2)cc1` (centres undefined): in test [1], the Activity is < 10%.

Regarding `O=C(CCOCCNc1cccc2c1C(=O)N(C1CCC(=O)NC1=O)C2=O)NCCC(=O)Nc1ccc(N(C(=O)CCl)C(C(=O)NCCc2ccccc2)c2cccs2)cc1` (centres undefined), the Activity in test [1] was < 10%.

As for `O=C(CCOCCNc1cccc2c1C(=O)N(C1CCC(=O)NC1=O)C2=O)NCCOCCC(=O)Nc1ccc(N(C(=O)CCl)C(C(=O)NCCc2ccccc2)c2cccs2)cc1` (centres undefined), the Activity in test [1] came to 30.1%. The IC50 with HT-1080 [5] stood at 29.2 µM.

For the molecule `O=C(CCOCCNc1cccc2c1CN(C1CCC(=O)NC1=O)C2=O)NCCCC(=O)Nc1ccc(N(C(=O)CCl)C(C(=O)NCCc2ccccc2)c2cccs2)cc1` (centres undefined), the Activity in test [1] is < 10%.

On to `O=C(CCOCCNc1cccc2c1C(=O)N(C1CCC(=O)NC1=O)C2=O)NC(=O)Nc1ccc(N(C(=O)CCl)C(C(=O)NCCc2ccccc2)c2cccs2)cc1` (centres undefined), for which, in test [1], the Activity is < 10%.

On to `C=C(F)C(=O)N(c1ccc(NC(=O)CCOCCNC(=O)CCOCCNc2cccc3c2C(=O)N(C2CCC(=O)NC2=O)C3=O)cc1)C(C(=O)NCCc1ccccc1)c1cccs1` (centres undefined), for which the Activity in test [2] was < 10%.

As for `Cc1ncsc1-c1ccc([C@H](C)NC(=O)[C@@H]2C[C@@H](O)CN2C(=O)[C@@H](NC(=O)CCCCCCCC(=O)Nc2ccc(N(C(=O)CCl)C(C(=O)NCCc3ccccc3)c3cccs3)cc2)C(C)(C)C)cc1` (some centres undefined), the Activity in test [2] turned out to be 21%.

In the case of `Cc1ncsc1-c1ccc([C@H](C)NC(=O)[C@@H]2C[C@@H](O)CN2C(=O)[C@@H](NC(=O)CCCCCCCCC(=O)Nc2ccc(N(C(=O)CCl)C(C(=O)NCCc3ccccc3)c3cccs3)cc2)C(C)(C)C)cc1` (some centres undefined), the Activity in test [2] worked out at 28.6%.

For `O=C(CCOCCNc1cccc2c1C(=O)N(C1CCC(=O)NC1=O)C2=O)NCCCCCC(=O)Nc1ccc(N(C(=O)CCl)C(C(=O)NCCc2ccccc2)c2cccs2)cc1` (centres undefined), the Activity in test [1] was 18%. Moreover, the IC50 in the test on HT-1080 [5] was 31.8 µM.

As to `Cc1ncsc1-c1ccc([C@H](C)NC(=O)[C@@H]2C[C@@H](O)CN2C(=O)[C@@H](NC(=O)CCCCC(=O)N2CCN(CC(=O)Nc3ccc(N(C(=O)CCl)C(C(=O)NCCc4ccccc4)c4cccs4)cc3)CC2)C(C)(C)C)cc1` (some centres undefined), the Activity in test [2] was < 10%.

Take `COc1ccc(N(C(=O)CCl)C(C(=O)NCCc2ccccc2)c2ccc(NC(=O)CCOCCNC(=O)CCOCCNc3cccc4c3C(=O)N(C3CCC(=O)NC3=O)C4=O)cc2)cc1Cl` (centres undefined): the Activity in test [2] worked out at 39.2%. Further, the IC50 in the test with HT-1080 [5] amounted to 13 µM.

For the molecule `O=C1CCC(N2C(=O)c3cccc(NCCOCCOCCOCCC(=O)Nc4ccc(N(C(=O)CCl)C(C(=O)NCCc5ccccc5)c5cccs5)cc4)c3C2=O)C(=O)N1` (centres undefined), the Activity in test [1] was 19.4%.

Consider `COc1ccc(N(C(=O)CCl)C(C(=O)NCCc2ccccc2)c2ccc(NC(=O)CCOCCOCCOCCNc3cccc4c3C(=O)N(C3CCC(=O)NC3=O)C4=O)cc2)cc1Cl` (centres undefined), for which the Activity in test [2] was < 10%.

As to `COc1ccc(N(C(=O)CCl)C(C(=O)NCCc2ccccc2)c2ccc(NC(=O)CCOCCOCCNc3cccc4c3C(=O)N(C3CCC(=O)NC3=O)C4=O)cc2)cc1Cl` (centres undefined), the Activity in test [2] is < 10%.

With `O=C1CCC(N2C(=O)c3cccc(NCCOCCC(=O)N4CCN(CC(=O)Nc5ccc(N(C(=O)CCl)C(C(=O)NCCc6ccccc6)c6cccs6)cc5)CC4)c3C2=O)C(=O)N1` (centres undefined), the result in the test on HT-1080 [3] and with HT-1080 [4] was Active. Moreover, the Activity in test [1] stood at 33%. Besides, the half-maximal inhibitory concentration (IC50) in the test with HT-1080 [5] was determined as 11.7 µM.

As for `O=C(CCOCCOCCNc1cccc2c1C(=O)N(C1CCC(=O)NC1=O)C2=O)NCCOCCC(=O)Nc1ccc(N(C(=O)CCl)C(C(=O)NCCc2ccccc2)c2cccs2)cc1` (centres undefined), the Activity in test [1] stood at 16.4%.

For `O=C(CCOCCNc1cccc2c1C(=O)N(C1CCC(=O)NC1=O)C2=O)NCCCC(=O)Nc1ccc(N(C(=O)CCl)C(C(=O)NCCc2ccccc2)c2cccs2)cc1` (centres undefined), the Activity in test [1] stood at 33.8%. Moreover, the IC50 in the test with HT-1080 [5] was found to be 37.7 µM.

On to `O=C(CCOCCNc1cccc2c1C(=O)N(C1CCC(=O)NC1=O)C2=O)NCCCCC(=O)Nc1ccc(N(C(=O)CCl)C(C(=O)NCCc2ccccc2)c2cccs2)cc1` (centres undefined), for which the Activity in test [1] was < 10%.
